Results: ChEMBL document CHEMBL1201862, “PubChem BioAssay data set” (2004)
Active and inactive are the calls of the source.

How the values were obtained:
[1] = Luminescence-based cell-based high throughput dose response assay to identify activators of the DAF-12 from the parasite S. stercoralis (ssDAF-12).; assay type: functional
[2] = target: T1, Oxysterols receptor LXR-beta (Homo sapiens, UniProt P55055); assay: LXR agonists, Gal4 luciferase reporter, dose response, counter-screen for ssDAF-12 agonist project, cell-based, luminescence, HEK293, S. stercoralis campaign (AID 720737); assay type: functional; settings: read-out: IC50 (the source's name)
T1 sequence (P55055 whole entry): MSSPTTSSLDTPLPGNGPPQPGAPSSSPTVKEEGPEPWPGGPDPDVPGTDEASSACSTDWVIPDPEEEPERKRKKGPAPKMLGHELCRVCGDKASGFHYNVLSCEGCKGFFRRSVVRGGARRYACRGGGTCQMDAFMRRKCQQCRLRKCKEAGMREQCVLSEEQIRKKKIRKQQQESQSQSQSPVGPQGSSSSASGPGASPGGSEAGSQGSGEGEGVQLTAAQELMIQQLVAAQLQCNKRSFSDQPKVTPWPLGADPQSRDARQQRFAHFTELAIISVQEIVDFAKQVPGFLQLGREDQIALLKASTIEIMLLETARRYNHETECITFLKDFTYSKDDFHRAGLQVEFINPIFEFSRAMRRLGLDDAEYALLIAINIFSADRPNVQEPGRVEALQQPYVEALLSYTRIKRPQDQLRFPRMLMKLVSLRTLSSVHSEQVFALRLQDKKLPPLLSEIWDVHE

[3] = target: DNA repair protein RAD52 homolog (Homo sapiens, UniProt P43351); assay type: functional, biochemical
[4] = target: T2, DNA repair and recombination protein RAD54-like (Homo sapiens, UniProt Q92698); assay: inhibitors of human RAD54 branch migration, confirmation, biochemical, fluorescence, cherry-picked samples, dose series (AID 651657); assay type: functional
T2 sequence (Q92698 whole entry): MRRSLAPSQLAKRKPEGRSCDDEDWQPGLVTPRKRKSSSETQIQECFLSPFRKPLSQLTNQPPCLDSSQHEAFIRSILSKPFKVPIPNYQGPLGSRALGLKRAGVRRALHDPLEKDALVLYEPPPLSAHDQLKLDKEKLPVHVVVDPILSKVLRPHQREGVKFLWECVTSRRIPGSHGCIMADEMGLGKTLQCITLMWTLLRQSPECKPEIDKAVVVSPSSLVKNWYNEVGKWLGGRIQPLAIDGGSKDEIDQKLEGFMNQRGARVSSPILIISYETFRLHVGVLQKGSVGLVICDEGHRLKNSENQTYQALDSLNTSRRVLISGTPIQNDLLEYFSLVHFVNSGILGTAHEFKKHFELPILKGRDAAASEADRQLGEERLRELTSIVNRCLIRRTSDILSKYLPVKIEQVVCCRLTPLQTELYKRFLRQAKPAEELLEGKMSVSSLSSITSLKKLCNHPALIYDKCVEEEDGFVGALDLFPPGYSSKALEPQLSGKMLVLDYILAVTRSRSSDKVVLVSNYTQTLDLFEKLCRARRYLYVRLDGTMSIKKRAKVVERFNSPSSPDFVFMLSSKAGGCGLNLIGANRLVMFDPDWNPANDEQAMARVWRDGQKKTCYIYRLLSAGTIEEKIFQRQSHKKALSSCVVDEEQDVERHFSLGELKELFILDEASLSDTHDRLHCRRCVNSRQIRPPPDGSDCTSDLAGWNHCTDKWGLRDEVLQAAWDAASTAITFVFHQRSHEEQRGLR

[5] = MC4R antagonists, dose response, counter-screen for LGR2 antagonist project, cell-based, plate reader, cherry pick (AID 743444); assay type: functional;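 note: transfected HEK 293 cells stimulated with alpha-MSH peptide; potency of inhibitors of the alpha-MSH evoked signal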
[6] = LGR2 antagonists, dose response, cell-based, HEK293, CRE-luciferase reporter, cherry pick, set 2 (AID 743343); assay type: functional;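 note: transfected cells were stimulated with diluted bursicon conditioned medium after compound addition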
[7] = target: Luciferin 4-monooxygenase (Photinus pyralis, UniProt P08659); assay: firefly luciferase enzyme inhibitors, dose response, biochemical, luminescence (AID 1891)
[8] = cells
[9] = Luminescence Cell-Based Dose Confirmation HTS to Identify Inhibitors of Platelet Dense Granule Release. [Related pubchem assays: 1663 (Primary HTS), 1678 (Summary of Project)]; assay type: functional
[10] = target: T1, Oxysterols receptor LXR-beta; assay type: functional, cell-based
[11] = target: T3, Protein skinhead-1 (Caenorhabditis elegans, UniProt P34707); assay type: functional
T3 sequence (P34707 whole entry): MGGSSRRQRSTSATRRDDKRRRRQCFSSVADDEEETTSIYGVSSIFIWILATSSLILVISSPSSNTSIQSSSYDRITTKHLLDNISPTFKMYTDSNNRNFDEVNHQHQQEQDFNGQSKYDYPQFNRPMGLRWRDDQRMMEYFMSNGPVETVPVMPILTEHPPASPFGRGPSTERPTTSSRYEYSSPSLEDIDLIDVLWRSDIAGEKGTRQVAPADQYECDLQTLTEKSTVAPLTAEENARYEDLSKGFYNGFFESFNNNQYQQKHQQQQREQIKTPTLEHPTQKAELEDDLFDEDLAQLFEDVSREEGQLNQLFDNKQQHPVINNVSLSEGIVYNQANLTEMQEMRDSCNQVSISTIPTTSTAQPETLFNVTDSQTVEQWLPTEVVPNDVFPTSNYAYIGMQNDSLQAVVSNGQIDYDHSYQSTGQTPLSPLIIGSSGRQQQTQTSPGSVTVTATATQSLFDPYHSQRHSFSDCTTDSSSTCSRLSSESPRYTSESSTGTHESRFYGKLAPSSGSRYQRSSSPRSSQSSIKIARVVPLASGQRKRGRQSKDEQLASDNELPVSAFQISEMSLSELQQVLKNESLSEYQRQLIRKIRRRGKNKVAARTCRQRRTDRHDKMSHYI

[12] = HepG2 cell cytotoxicity, dose response, cytotoxicity control, plate reader, cherry-pick, antagonist series (AID 743416); assay type: functional, cell-based
[13] = Luminescence Cell-Based Dose Response HTS to Identify Inhibitors of 5'UTR Stem-Loop Driven Prion Protein mRNA Translation in H4 Neuroglioblastoma Cells. [Related pubchem assays: 1827 (Project Summary), 1813 (Primary HTS)]; assay type: functional
[14] = target: T1, Oxysterols receptor LXR-beta; assay type: functional, cell-based; remark: listed apart in the source
[15] = target: Paired box protein Pax-8 (Homo sapiens, UniProt Q06710); assay: inhibitors of PAX8-driven TPO luciferase reporter, dose response, RMG-I cells, cherry-pick (AID 687027); assay type: functional, cell-based;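 note: luciferase reporter driven by Pax8 target thyroperoxidase promoter measured by SteadyGlo luminescence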
[16] = IGROV1 ovarian cancer cell cytotoxicity, dose response, PAX8 inhibitor project, plate reader, dry powder samples (AID 743043); assay type: functional, cell-based; settings: IGROV-1
[17] = cytotoxicity in OVCAR8 ovarian cancer cells, dose response, PAX8 project, cell-based, plate reader, dry powder samples (AID 743197); assay type: functional; settings: OVCAR-8
[18] = non-specific cell cytotoxicity, dose response, cytotoxicity control for PAX8 inhibitor project, plate reader, dry powder samples (AID 743021); assay type: functional, cell-based
[19] = HEK293T cytotoxicity, dose response, cytotoxicity control for miR-122 modulator project, cell-based, activator set, cherry-pick (AID 720690); assay type: functional;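 note: HEK293T human cells scored for general mammalian cytotoxicity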
[20] = target: 1-phosphatidylinositol 4,5-bisphosphate phosphodiesterase gamma-1 (Homo sapiens, UniProt P19174); assay: Counterscreen for inhibitors of phospholipase C isozymes (PLC-B3): Fluorescence-based biochemical high throughput dose response assay to identify inhibitors of phospholipase C isozymes (PLC-gamma1).
[21] = target: 1-phosphatidylinositol 4,5-bisphosphate phosphodiesterase beta-3 (Homo sapiens, UniProt Q01970); assay: Fluorescence-based biochemical high throughput dose response assay to identify inhibitors of phospholipase C isozymes (PLC-B3).
[22] = T. cruzi intracellular amastigote growth inhibition, dose response, imaging, CA-I/72 strain, bovine embryo skeletal muscle, dry powder (AID 651885); assay type: functional, cell-based
[23] = P. falciparum Dd2 growth inhibitors, dose response, SYBR Green, cherry-picked samples (AID 1159567); assay type: functional, cell-based
[24] = HepG2 cell cytotoxicity, dose response, cytotoxicity control, cherry-picked samples (AID 1159577); assay type: functional, cell-based

1-phosphatidylinositol 4,5-bisphosphate phosphodiesterase beta-3, sequence (Q01970 whole entry): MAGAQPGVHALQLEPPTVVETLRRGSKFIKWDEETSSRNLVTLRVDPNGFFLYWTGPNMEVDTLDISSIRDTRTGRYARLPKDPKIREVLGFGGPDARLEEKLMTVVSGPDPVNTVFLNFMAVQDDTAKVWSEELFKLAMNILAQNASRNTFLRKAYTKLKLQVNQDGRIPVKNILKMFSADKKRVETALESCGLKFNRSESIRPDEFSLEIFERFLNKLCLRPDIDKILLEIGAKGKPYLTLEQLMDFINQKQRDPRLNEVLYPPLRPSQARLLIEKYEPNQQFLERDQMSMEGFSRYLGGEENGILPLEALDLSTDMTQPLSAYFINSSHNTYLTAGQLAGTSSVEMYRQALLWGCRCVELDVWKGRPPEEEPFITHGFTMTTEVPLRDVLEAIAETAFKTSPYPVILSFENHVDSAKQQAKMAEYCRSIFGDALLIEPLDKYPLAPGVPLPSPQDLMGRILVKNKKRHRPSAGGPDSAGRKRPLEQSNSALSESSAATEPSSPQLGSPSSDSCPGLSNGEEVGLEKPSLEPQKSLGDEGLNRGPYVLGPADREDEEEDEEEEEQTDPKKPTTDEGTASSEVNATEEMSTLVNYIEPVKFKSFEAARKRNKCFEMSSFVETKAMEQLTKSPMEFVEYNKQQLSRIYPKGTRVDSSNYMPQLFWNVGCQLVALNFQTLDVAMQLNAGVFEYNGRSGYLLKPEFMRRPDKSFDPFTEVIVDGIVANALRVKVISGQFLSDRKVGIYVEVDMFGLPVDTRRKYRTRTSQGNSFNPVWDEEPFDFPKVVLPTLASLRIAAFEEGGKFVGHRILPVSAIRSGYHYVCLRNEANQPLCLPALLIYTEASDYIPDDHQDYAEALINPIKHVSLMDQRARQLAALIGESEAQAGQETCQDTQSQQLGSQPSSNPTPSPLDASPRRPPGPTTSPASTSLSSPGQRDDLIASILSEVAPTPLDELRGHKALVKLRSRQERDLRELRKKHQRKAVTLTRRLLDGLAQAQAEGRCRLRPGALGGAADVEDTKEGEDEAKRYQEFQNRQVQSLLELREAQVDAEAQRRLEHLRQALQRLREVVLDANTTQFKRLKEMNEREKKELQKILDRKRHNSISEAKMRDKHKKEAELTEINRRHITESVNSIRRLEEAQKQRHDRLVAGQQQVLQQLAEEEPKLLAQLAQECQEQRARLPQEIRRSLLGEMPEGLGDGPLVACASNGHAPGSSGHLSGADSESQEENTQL
Paired box protein Pax-8, sequence (Q06710 whole entry): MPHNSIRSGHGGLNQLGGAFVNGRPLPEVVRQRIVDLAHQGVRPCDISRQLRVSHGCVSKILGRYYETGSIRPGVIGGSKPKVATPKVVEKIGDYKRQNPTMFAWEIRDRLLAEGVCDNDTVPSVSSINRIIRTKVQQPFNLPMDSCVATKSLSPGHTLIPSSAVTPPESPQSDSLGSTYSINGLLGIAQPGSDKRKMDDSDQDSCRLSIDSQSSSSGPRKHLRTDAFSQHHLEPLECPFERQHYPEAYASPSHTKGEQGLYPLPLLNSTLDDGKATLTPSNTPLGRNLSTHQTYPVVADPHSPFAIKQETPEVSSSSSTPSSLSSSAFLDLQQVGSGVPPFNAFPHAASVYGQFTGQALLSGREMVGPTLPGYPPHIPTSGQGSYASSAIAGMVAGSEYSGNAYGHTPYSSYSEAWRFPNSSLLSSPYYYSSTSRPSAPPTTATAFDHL
Luciferin 4-monooxygenase, sequence (P08659 whole entry): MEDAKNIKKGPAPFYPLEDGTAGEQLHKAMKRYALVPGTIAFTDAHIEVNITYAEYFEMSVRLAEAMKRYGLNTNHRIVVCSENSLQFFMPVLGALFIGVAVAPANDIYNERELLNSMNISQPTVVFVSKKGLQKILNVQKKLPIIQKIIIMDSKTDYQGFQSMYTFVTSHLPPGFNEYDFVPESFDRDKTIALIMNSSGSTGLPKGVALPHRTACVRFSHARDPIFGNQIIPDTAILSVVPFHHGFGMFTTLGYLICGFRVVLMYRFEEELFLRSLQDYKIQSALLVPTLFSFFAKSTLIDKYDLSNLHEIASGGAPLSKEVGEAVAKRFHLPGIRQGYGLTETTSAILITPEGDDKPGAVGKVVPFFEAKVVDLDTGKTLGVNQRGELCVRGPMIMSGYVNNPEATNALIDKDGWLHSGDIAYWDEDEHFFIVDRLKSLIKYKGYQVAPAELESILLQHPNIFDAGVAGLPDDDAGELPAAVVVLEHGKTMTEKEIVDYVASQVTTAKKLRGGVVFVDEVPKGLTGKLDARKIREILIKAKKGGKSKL
DNA repair protein RAD52 homolog, sequence (P43351 whole entry): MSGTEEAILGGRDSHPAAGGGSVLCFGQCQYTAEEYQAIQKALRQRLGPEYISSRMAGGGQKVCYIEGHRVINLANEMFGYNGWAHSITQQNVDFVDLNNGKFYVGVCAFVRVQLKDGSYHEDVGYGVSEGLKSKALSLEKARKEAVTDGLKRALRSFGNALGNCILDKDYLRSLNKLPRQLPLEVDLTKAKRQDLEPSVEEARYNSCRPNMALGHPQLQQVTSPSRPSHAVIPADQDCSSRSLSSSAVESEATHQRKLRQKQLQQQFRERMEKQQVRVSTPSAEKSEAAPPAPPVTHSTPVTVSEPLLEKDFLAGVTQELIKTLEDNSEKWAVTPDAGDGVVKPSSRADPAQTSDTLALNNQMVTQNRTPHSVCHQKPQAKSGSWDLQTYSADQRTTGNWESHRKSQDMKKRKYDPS
1-phosphatidylinositol 4,5-bisphosphate phosphodiesterase gamma-1, sequence (P19174 whole entry): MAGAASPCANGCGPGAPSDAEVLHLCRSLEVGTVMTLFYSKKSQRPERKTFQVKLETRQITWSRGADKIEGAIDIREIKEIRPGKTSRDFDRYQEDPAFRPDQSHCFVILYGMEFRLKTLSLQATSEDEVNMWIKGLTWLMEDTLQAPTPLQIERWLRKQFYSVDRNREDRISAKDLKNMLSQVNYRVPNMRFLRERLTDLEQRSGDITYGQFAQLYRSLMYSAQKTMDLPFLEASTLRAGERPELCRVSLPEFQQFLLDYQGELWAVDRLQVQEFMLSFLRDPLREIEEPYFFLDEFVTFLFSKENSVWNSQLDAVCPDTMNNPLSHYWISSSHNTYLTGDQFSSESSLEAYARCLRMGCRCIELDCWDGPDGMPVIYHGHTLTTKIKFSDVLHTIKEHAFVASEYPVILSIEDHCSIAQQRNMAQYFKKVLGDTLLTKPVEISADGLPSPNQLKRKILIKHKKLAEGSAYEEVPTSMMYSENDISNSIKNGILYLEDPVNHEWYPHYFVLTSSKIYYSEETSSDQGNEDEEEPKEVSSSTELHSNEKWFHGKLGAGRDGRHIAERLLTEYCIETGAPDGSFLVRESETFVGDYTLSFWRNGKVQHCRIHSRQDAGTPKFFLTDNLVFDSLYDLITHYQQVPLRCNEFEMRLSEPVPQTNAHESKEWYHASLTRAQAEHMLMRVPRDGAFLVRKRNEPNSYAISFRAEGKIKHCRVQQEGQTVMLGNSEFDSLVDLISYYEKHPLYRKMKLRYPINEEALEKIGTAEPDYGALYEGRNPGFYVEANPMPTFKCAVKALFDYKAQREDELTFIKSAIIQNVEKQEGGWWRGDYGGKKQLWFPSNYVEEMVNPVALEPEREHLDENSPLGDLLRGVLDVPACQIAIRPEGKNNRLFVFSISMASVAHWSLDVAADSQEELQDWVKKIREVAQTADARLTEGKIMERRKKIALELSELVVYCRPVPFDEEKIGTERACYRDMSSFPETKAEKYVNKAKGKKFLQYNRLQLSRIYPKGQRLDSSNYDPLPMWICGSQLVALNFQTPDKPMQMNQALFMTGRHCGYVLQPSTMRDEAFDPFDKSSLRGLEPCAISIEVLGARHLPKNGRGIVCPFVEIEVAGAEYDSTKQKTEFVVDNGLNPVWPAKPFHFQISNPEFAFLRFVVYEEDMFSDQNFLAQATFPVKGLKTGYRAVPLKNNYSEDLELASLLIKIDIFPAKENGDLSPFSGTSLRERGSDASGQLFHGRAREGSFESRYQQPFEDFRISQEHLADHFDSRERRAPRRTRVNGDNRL

COc1cccc(CC(=O)Nc2ccc3c(c2)c(=O)n(C)n3-c2ccc(C(C)(C)C)cc2)c1
IC50 [1]: > 67.6 µM (inactive) | EC50 [2]: > 67.6 µM (inactive)

CN(C)CCNC(=O)c1cccc(-c2cnc3c(NC=O)cc(-c4ccccc4F)cn23)c1
AC50 [3]: 3.69 µM (active) | AC50 [4]: 21.7 µM (active)

Cc1ccc(-c2noc(-c3cccs3)n2)cc1
AC50 [5]: 22.3 µM (active) | AC50 [6]: 14.4 µM (active) | EC50 [7]: 3.98 µM (active) | EC50 [8]: > 67.5 µM (inactive) | EC50 [9]: > 112 µM (not active) | EC50 [10]: > 67.5 µM (inactive) | IC50 [11]: 18.8 µM (active) | AC50 [12]: > 52 µM (inactive)

O=C(N/N=C/c1cccs1)c1[nH]nc2c1CCC2
EC50 [13]: 11 µM (inconclusive) | EC50 [14]: > 67.5 µM (inactive)

COc1ccc(NC(=O)N2CC(=O)N3[C@@H](CO)[C@@H](c4ccc(/C=C/c5ccccc5)cc4)[C@@H]3C2)cc1
AC50 [15]: 5.52 µM (active) | AC50 [16]: 54.8 µM (active) | AC50 [17]: 39.1 µM (active) | AC50 [18]: 7.22 µM (active)

COc1ccc(C#Cc2ccc3c(c2)O[C@H](CN(C)C(=O)CN2CCOCC2)[C@@H](C)CN([C@@H](C)CO)S3(=O)=O)cc1
AC50 [19]: 43.2 µM (active)

O=S(=O)(CS(=O)(=O)c1ccc(Br)cc1)c1ccc(Br)cc1
IC50 [20]: 30.4 µM (inactive) | IC50 [21]: > 123 µM (inactive)

CC(C)N1C[C@H](C)[C@@H](CN(C)C(=O)OC(C)(C)C)Oc2c(NC(=O)c3cccnc3)cccc2C1=O
IC50 [22]: > 20 µM (inactive)

C[C@H]1CN([C@@H](C)CO)S(=O)(=O)c2ccc(C#CC3CCCCC3)cc2O[C@@H]1CN(C)C
AC50 [19]: 26.4 µM (active)

COc1cc(CN2C[C@@H]3N[C@H](C2)[C@@H]3c2ccc(-c3ccc(C#N)cc3)cc2)cc(OC)c1
AC50 [23]: 3.05 µM (active) | AC50 [24]: 10.5 µM (active)

CO[C@H]1CN(C)C(=O)c2ccc(NC(=O)c3ccc(Oc4ccccc4)cc3)cc2OC[C@H](C)NC[C@H]1C
AC50 [23]: 6.48 µM (active) | AC50 [24]: 11.7 µM (active)
